Ten compounds from patent US20220324835A1 (Nurix Therapeutics, Inc., priority 2018, published 2022) can be followed below.

Structures are written as SMILES.

Assay [1] deals with T-cell. Nature of the assay: CD25 cell surface staining on T-cells co-stimulated with anti-CD3 and anti-CD28 antibody (Biological Example 2). In kind it is cell-based, human. The conditions noted are these: Homo sapiens, T-cell, fold change over baseline, primary human total T-cells, read-out: CD25 staining Anti-CD3/Anti-CD28 stimulation; for fold induction at 0.3 µM: 0.3 μM Cbl-b inhibitor; for fold induction at 1 µM: 1 μM Cbl-b inhibitor; for fold induction at 4 µM: 4 μM Cbl-b inhibitor. In outline: (§1)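 Values are fold-change over baseline: readings (IL-2 release, CD25 staining) from inhibitor-treated T-cells divided against untreated cells […]. No detailed procedure stated.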

Assay [2] relates to T-cell. Put plainly: CD25 cell surface staining on T-cells stimulated with anti-CD3 antibody alone (Biological Example 2). It counts as cell-based, human. The following applies: T-cell, fold change over baseline, primary human total T-cells, read-out: CD25 staining Anti-CD3 stimulation; for fold induction at 1 µM: 1 μM Cbl-b inhibitor; for fold induction at 8 µM: 8 μM Cbl-b inhibitor.

Assay [3] concerns T-cell. Nature of the assay: IL-2 secretion from T-cells stimulated with anti-CD3 antibody alone (Biological Example 2). It counts as cell-based, human. The following applies: T-cell, fold change over baseline, primary human total T-cells, read-out: IL-2 secretion Anti-CD3 stimulation; for fold induction at 1 µM: 1 μM Cbl-b inhibitor; for fold induction at 8 µM: 8 μM Cbl-b inhibitor.

The target of assay [4] is T1, Cbl-b (Homo sapiens, UniProt Q13191). Nature of the assay: Cbl-b inhibition assay (Cbl-b activity assay, FRET, Biological Example 1; 100 mM NaCl, 60 nM Src kinase). It counts as biochemical. The following applies: upper bound stated in text lists; read-out: IC50 values in the Cbl-b inhibition assay of Biological Example 1. In short, it runs like this: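 FRET read-out: loss of signal marks inhibition. Mix = biotin-Avi-Cbl-b (N-term), Src kinase, UbcH5B-Ub(Bodipy-FL, irreversible conjugate), streptavidin-Tb, assay buffer.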

Assay [5] concerns the target T1, Cbl-b. Put plainly: Cbl-b activity assay (Cbl-b inhibition assay), TR-FRET of Cbl-b interaction with UbcH5B-Ub. The following applies: assay buffer with 100 mM NaCl, 60 nM Src kinase; read-out: Cbl-b activity IC50. It counts as biochemical. In short, it runs like this:
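Compound-treated Cbl-b was incubated 1.5 h with Src kinase (60 nM final; 30 nM for asterisked values, which also used 50 mM instead of 100 mM NaCl), 1 mM ATP and 5 mM MgCl2. Binding to fluorescent Ub-loaded UbcH5B (C85K mutant) was then read by TR-FRET after 1 h more.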
(In general: In TR-FRET formats the signal depends on donor and acceptor labels being close together.)

Assay [6] deals with T-cell. Nature of the assay: IL-2 secretion from T-cells co-stimulated with anti-CD3 and anti-CD28 antibody (Biological Example 2). In kind it is cell-based, human. The conditions noted are these: Homo sapiens, T-cell, fold change over baseline, primary human total T-cells, read-out: IL-2 secretion Anti-CD3/Anti-CD28 stimulation; for fold induction at 0.3 µM: 0.3 μM Cbl-b inhibitor; for fold induction at 1 µM: 1 μM Cbl-b inhibitor; for fold induction at 4 µM: 4 μM Cbl-b inhibitor. In short, it runs like this:
as §1

T1 sequence (Q13191 36-427): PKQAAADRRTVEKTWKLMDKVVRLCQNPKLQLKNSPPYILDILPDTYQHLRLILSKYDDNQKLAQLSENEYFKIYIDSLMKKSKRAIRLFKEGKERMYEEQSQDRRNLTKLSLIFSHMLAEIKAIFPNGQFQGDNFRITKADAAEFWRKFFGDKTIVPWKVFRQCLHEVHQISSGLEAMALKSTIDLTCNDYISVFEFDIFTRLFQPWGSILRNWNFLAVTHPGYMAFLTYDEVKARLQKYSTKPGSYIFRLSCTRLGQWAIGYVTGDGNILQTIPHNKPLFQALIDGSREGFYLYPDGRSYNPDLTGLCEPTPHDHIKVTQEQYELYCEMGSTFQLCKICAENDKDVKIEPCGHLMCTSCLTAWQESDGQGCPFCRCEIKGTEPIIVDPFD

Regarding `Cn1cnnc1CC(C)(C)c1cccc(NC(=O)c2cccc(C(F)(F)F)n2)c1` [Compound 284, N-(3-(2-methyl-1-(4-methyl-4H-1,2,4-triazol-3-yl)propan-2-yl)phenyl)-6-(trifluoromethyl)picolinamide], the fold induction at 0.3 µM in assay [1] fell in the range of 1.01 to 1.3; in assay [6], 1.01 to 2.5. The fold induction at 1 µM in assay [1] is 1.01 to 1.3; in assay [2], 0.801 to 1; in assay [3], > 0.201; in assay [6], 2.51 to 5. Moreover, the fold induction at 4 µM in assay [1] was 1.31 to 1.5; in assay [6], > 7.5. Further, the results for the fold induction at 8 µM in assay [2] and in assay [3] were > 1 and > 0.201, respectively. Also, the results for the IC50 in assay [4] and in assay [5] were ≤ 100 nM and < 100 nM, respectively.

As to `Cn1cnnc1CC(c1cccc(N2Cc3c(cccc3C(F)(F)F)C2=O)c1)C(F)(F)F` (stereo not drawn) [Compound 289, 2-(3-(1,1,1-Trifluoro-3-(4-methyl-4H-1,2,4-triazol-3-yl)propan-2-yl)phenyl)-4-(trifluoromethyl)isoindolin-1-one], the fold induction at 0.3 µM in assay [1] was 1.01 to 1.3; in assay [6], < 1. In addition, the fold induction at 1 µM was 1.01 to 1.3 in assay [1], 0.801 to 1 in assay [2], 0.101 to 0.15 in assay [3] and < 1 in assay [6]. The results for the fold induction at 4 µM in assay [1] and in assay [6] were 1.01 to 1.3 and 1.01 to 2.5, respectively. Moreover, the fold induction at 8 µM in assay [2] fell in the range of 0.801 to 1; in assay [3], 0.151 to 0.2. Also, the half-maximal inhibitory concentration (IC50) in assay [4] is ≤ 500 nM; in assay [5] it was 301 to 1000 nM.

As for `C[C@H](Cc1nncn1C)c1cccc(NC(=O)c2ccnc3ccnn23)c1` [Compound 328, (R)-N-(3-(1-(4-Methyl-4H-1,2,4-triazol-3-yl)propan-2-yl)phenyl)pyrazolo[1,5-a]pyrimidine-7-carboxamide], the fold induction at 0.3 µM in assay [1] was in the range of 1.01 to 1.3; in assay [6], 1.01 to 2.5. Besides, the fold induction at 1 µM in assay [1] was in the range of 1.01 to 1.3; in assay [2] it was 0.801 to 1; in assay [3] it was 0.051 to 0.1; in assay [6], 1.01 to 2.5. In addition, the fold induction at 4 µM in assay [1] fell in the range of 1.01 to 1.3; in assay [6], 2.51 to 5. Moreover, the fold induction at 8 µM was > 1 in assay [2] and 0.101 to 0.15 in assay [3]. The IC50 in assay [4] is ≤ 100 nM; in assay [5], < 100 nM.

Take `Cc1cc(C(=O)Nc2cccc([C@H](C)Cc3nncn3C)c2)nc2ccnn12` [Compound 329, (R)-7-Methyl-N-(3-(1-(4-methyl-4H-1,2,4-triazol-3-yl)propan-2-yl)phenyl)pyrazolo[1,5-a]pyrimidine-5-carboxamide]: the fold induction at 0.3 µM in assay [1] was 1.01 to 1.3; in assay [6], 1.01 to 2.5. Also, the fold induction at 1 µM is 1.01 to 1.3 in assay [1], 0.601 to 0.8 in assay [2], 0.101 to 0.15 in assay [3] and 1.01 to 2.5 in assay [6]. For the same compound, the fold induction at 4 µM in assay [1] was 1.31 to 1.5; in assay [6], 5 to 7.5. Also, the fold induction at 8 µM was > 1 in assay [2] and > 0.201 in assay [3]. Also, the results for the IC50 in assay [4] and in assay [5] were ≤ 300 nM and 100 to 300 nM, respectively.

In the case of `Cc1cc(C(=O)Nc2cccc([C@H]3C[C@H]3c3nncn3C)c2)nc(C2CC2)n1` [Compound 333, 2-cyclopropyl-6-methyl-N-{3-[(1 S,2R)-2-(4-methyl-1,2,4-triazol-3-yl)cyclopropyl]phenyl}pyrimidine-4-carboxamide], the fold induction at 0.3 µM was 1.01 to 1.3 in assay [1] and 1.01 to 2.5 in assay [6]. The fold induction at 1 µM in assay [1] is 1.01 to 1.3; in assay [2], 0.801 to 1; in assay [3], 0.101 to 0.15; in assay [6], 2.51 to 5. For the same compound, the fold induction at 4 µM in assay [1] fell in the range of 1.01 to 1.3; in assay [6] it was 5 to 7.5. For the same compound, the fold induction at 8 µM in assay [2] is > 1; in assay [3], > 0.201. In addition, the IC50 in assay [4] is ≤ 300 nM; in assay [5], 100 to 300 nM.

Turning to `Cc1cc(C(=O)Nc2cccc([C@H](C)Cc3nncs3)c2)nc(C2CC2)n1` [Compound 334, (R)-N-(3-(1-(1,3,4-thiadiazol-2-yl)propan-2-yl)phenyl)-2-cyclopropyl-6-methylpyrimidine-4-carboxamide], the fold induction at 0.3 µM lay in the range of 1.01 to 1.3 in assay [1] and 1.01 to 2.5 in assay [6]. For the same compound, the fold induction at 1 µM in assay [1] was 1.01 to 1.3; in assay [2], 0.601 to 0.8; in assay [3] it was 0.101 to 0.15; in assay [6], 2.51 to 5. Moreover, the fold induction at 4 µM was in the range of 1.01 to 1.3 in assay [1] and 5 to 7.5 in assay [6]. The fold induction at 8 µM in assay [2] was 0.801 to 1; in assay [3], > 0.201. For the same compound, the results for the IC50 in assay [4] and in assay [5] were ≤ 300 nM and 100 to 300 nM, respectively.

As to `Cn1cnnc1CC1(c2cccc(NC(=O)c3ccnc(C(F)(F)F)n3)c2)COC1` [Compound 337, N-(3-(3-((4-methyl-4H-1,2,4-triazol-3-yl)methyl)oxetan-3-yl)phenyl)-2-(trifluoromethyl)pyrimidine-4-carboxamide], the fold induction at 0.3 µM in assay [1] was in the range of 1.01 to 1.3; in assay [6] it was 1.01 to 2.5. For the same compound, the fold induction at 1 µM in assay [1] fell in the range of 1.01 to 1.3; in assay [2], 0.601 to 0.8; in assay [3], 0.051 to 0.1; in assay [6], 2.51 to 5. Also, the fold induction at 4 µM in assay [1] lay in the range of 1.01 to 1.3; in assay [6], 2.51 to 5. Also, the fold induction at 8 µM in assay [2] was > 1; in assay [3], 0.151 to 0.2. Further, the IC50 in assay [4] is ≤ 300 nM; in assay [5] it was 100 to 300 nM.

Take `Cc1cc(C(=O)Nc2cccc(C3(Cc4nncn4C)COC3)c2)nc(C(F)(F)F)n1` [Compound 338, 6-methyl-N-(3-(3-((4-methyl-4H-1,2,4-triazol-3-yl)methyl)oxetan-3-yl)phenyl)-2-(trifluoromethyl)pyrimidine-4-carboxamide]: the fold induction at 0.3 µM in assay [1] lay in the range of 1.01 to 1.3; in assay [6], 1.01 to 2.5. For the same compound, the fold induction at 1 µM lay in the range of 1.01 to 1.3 in assay [1], 0.801 to 1 in assay [2], 0.101 to 0.15 in assay [3] and 2.51 to 5 in assay [6]. The fold induction at 4 µM in assay [1] was 1.01 to 1.3; in assay [6], > 7.5. Besides, the fold induction at 8 µM was > 1 in assay [2] and > 0.201 in assay [3]. Also, the IC50 is ≤ 100 nM in assay [4] and < 100 nM in assay [5].

With `Cc1cc(C(=O)Nc2cccc(C3(Cc4nncn4C)COC3)c2)nc(C2CC2)c1` [Compound 339, 6-cyclopropyl-4-methyl-N-(3-(3-((4-methyl-4H-1,2,4-triazol-3-yl)methyl)oxetan-3-yl)phenyl)picolinamide], the fold induction at 0.3 µM in assay [1] lay within 1.31 to 1.5; in assay [6], 5 to 7.5. Besides, the fold induction at 1 µM in assay [1] is 1.31 to 1.5; in assay [2], > 1; in assay [3], > 0.201; in assay [6], > 7.5. For the same compound, the fold induction at 4 µM in assay [1] was 1.51 to 1.75; in assay [6], > 7.5. Also, the fold induction at 8 µM in assay [2] was > 1; in assay [3], > 0.201. Further, the IC50 in assay [4] was ≤ 100 nM; in assay [5], < 100 nM.

As for `Cc1cc(C(=O)Nc2cccc(C3(Cc4nncn4C)COC3)c2)nc(C2CCC2)n1` [Compound 340, 2-cyclobutyl-6-methyl-N-(3-(3-((4-methyl-4H-1,2,4-triazol-3-yl)methyl)oxetan-3-yl)phenyl)pyrimidine-4-carboxamide], the fold induction at 0.3 µM in assay [1] lay within 1.01 to 1.3; in assay [6], 1.01 to 2.5. The fold induction at 1 µM lay within 1.01 to 1.3 in assay [1], 0.801 to 1 in assay [2], 0.151 to 0.2 in assay [3] and 5 to 7.5 in assay [6]. Further, the figures for the fold induction at 4 µM in assay [1] and in assay [6] were 1.31 to 1.5 and > 7.5, respectively. Further, the fold induction at 8 µM in assay [2] is > 1; in assay [3] it was > 0.201. The IC50 in assay [4] is ≤ 100 nM; in assay [5], < 100 nM.

Usually IC50 stands for the midpoint of a concentration-inhibition curve.
